Assays:
Assay in all cases: Kinase inhibitory activity, full kinase panel
Assay type in all cases: biochemical
Details in all cases: single concentration of 1 μM, read-out: %Inhibitory ability
RIOK3 = RIOK3 (Homo sapiens, UniProt O14730)
Description: (§1) In order to measure inhibitory activity (% inhibitory ability) against a protein kinase with respect to the compound of the present invention, a biochemical assay was performed in a full kinase panel shown in the following Table 1. As an experimental compound, the (S)-5-((3-fluorophenyl)ethynyl)-N-(piperidin-3-yl)-3-ureidothiophene-2-carboxamide synthesized in Example 24 was used.

EGFR(T790M) = EGFR(T790M) (Homo sapiens, UniProt P00533, T790M)
Description: as §1

PRKX = PRKX (Homo sapiens, UniProt P51817)
PRKX, sequence (P51817 whole entry): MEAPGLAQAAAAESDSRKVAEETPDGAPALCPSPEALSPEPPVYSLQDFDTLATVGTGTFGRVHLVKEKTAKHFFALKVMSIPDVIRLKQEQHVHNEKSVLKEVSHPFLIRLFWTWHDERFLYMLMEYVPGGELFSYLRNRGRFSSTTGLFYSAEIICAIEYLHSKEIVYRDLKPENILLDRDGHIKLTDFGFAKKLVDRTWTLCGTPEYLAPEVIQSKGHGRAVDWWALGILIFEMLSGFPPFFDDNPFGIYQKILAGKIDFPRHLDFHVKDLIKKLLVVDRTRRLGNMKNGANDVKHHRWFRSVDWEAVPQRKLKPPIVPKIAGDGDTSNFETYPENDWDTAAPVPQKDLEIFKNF
Description: as §1

BLK = BLK (Homo sapiens, UniProt P51451)
Description: as §1

MARK2 = MARK2 (Homo sapiens, UniProt Q7KZI7)
Description: as §1

SIK2 = SIK2 (Homo sapiens, UniProt Q9H0K1)
Description: as §1

FAK = FAK (Homo sapiens, UniProt Q05397)
Description: as §1

FYN = FYN (Homo sapiens, UniProt P06241)
Description: as §1

CSK = CSK (Homo sapiens, UniProt P41240)
Description: as §1

OSR1 = OSR1 (Homo sapiens, UniProt O95747)
Description: as §1

LRRK2 = LRRK2 (Homo sapiens, UniProt Q5S007)
Description: as §1

SIK = SIK (Homo sapiens, UniProt P57059)
SIK, sequence (P57059 whole entry): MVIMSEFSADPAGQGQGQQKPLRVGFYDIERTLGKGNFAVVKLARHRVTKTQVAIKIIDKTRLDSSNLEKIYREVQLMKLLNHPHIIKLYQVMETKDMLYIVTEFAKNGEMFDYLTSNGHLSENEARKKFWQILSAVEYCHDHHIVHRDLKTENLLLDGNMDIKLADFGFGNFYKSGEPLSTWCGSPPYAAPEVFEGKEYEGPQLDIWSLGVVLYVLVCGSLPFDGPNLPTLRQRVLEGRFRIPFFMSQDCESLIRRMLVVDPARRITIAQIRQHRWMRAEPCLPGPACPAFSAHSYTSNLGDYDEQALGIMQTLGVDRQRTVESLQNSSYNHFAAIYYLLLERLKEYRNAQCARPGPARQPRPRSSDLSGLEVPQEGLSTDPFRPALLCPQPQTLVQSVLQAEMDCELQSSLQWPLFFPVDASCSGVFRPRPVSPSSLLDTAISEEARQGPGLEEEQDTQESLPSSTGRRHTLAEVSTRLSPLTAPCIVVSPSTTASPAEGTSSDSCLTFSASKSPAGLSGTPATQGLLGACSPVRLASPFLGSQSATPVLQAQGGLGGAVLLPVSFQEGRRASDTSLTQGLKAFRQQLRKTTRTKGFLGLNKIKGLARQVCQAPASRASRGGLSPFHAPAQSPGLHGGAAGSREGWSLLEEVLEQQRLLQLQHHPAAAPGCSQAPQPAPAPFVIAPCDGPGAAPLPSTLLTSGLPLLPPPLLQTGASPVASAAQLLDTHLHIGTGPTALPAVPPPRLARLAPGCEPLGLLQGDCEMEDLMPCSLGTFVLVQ
Description: as §1

MEK1 = MEK1 (Homo sapiens, UniProt Q02750)
Description: as §1

ANKK1 = ANKK1 (Homo sapiens, UniProt Q8NFD2)
Description: as §1

DCAMKL1 = DCAMKL1 (Homo sapiens, UniProt O15075)
DCAMKL1, sequence (O15075 whole entry, species assumed): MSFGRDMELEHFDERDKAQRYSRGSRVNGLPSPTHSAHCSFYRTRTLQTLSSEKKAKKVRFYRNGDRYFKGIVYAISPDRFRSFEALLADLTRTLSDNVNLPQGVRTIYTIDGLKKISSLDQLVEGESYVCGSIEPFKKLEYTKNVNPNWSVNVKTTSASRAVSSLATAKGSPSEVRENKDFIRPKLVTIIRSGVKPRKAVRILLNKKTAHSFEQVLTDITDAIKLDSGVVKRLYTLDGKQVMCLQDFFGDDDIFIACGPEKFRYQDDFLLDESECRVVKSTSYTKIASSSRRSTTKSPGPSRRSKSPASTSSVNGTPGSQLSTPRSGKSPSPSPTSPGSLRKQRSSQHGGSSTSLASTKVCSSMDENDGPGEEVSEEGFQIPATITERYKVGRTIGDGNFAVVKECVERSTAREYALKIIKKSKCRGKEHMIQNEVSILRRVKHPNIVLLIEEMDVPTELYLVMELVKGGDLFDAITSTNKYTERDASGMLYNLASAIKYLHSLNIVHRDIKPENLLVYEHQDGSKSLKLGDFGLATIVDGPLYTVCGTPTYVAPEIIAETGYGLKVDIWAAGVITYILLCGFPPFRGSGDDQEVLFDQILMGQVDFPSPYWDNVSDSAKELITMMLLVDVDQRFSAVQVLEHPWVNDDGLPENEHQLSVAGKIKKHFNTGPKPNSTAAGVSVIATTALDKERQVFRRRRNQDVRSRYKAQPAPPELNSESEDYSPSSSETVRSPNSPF
Description: as §1

MAP4K4 = MAP4K4 (Homo sapiens, UniProt O95819)
Description: as §1

AXL = AXL (Homo sapiens, UniProt P30530)
Description: as §1

AURKB = AURKB (Homo sapiens, UniProt Q96GD4)
Description: as §1

PAK4 = PAK4 (Homo sapiens, UniProt O96013)
Description: as §1

LCK = LCK (Homo sapiens, UniProt P06239)
Description: as §1

FLT3 = FLT3 (Homo sapiens, UniProt P36888)
Description: as §1

MAP4K5 = MAP4K5 (Homo sapiens, UniProt Q9Y4K4)
Description: as §1

PHKG2 = PHKG2 (Homo sapiens, UniProt P15735)
Description: as §1

TAK1 = TAK1 (Homo sapiens, UniProt O43318)
Description: as §1

MERTK = MERTK (Homo sapiens, UniProt Q12866)
Description: as §1

MLK3 = MLK3 (Homo sapiens, UniProt Q16584)
Description: as §1

PHKG1 = PHKG1 (Homo sapiens, UniProt Q16816)
PHKG1, sequence (Q16816 whole entry): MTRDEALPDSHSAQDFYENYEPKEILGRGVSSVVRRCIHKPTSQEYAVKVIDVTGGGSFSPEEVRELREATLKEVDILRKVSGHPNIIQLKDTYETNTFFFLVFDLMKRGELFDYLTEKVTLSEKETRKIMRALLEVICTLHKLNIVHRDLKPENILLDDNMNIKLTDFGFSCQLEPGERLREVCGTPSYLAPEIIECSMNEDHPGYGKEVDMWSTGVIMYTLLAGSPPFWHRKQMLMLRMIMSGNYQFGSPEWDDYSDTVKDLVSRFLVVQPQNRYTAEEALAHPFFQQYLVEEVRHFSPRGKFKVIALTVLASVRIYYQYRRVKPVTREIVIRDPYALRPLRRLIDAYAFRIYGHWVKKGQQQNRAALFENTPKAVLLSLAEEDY
Description: as §1

BUB1 = BUB1 (Homo sapiens, UniProt O43683)
Description: as §1

HPK1 = HPK1 (Homo sapiens, UniProt Q92918)
HPK1, sequence (Q92918 whole entry, species assumed): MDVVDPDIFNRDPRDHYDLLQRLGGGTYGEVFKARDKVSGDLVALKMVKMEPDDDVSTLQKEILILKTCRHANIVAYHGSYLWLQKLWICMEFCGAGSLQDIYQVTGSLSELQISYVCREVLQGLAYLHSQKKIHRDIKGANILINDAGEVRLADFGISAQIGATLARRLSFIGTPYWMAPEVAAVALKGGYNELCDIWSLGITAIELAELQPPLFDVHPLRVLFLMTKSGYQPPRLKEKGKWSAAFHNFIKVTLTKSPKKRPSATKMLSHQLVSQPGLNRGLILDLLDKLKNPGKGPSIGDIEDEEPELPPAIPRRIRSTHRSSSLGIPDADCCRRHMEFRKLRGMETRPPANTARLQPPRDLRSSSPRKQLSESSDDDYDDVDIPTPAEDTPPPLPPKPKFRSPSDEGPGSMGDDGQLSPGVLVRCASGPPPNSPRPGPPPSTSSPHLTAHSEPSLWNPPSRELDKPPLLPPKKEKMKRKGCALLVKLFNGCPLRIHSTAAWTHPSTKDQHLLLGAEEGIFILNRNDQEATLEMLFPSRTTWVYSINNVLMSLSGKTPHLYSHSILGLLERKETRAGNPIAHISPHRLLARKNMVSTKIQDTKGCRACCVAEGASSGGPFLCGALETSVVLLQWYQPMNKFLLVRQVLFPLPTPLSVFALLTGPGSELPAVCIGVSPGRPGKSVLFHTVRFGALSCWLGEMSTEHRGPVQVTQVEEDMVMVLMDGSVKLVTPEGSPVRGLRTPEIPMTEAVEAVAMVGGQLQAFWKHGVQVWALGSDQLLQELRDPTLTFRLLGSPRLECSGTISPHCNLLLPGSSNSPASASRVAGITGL
Description: as §1

MAP4K3 = MAP4K3 (Homo sapiens, UniProt Q8IVH8)
Description: as §1

ULK1 = ULK1 (Homo sapiens, UniProt O75385)
Description: as §1

TRKB = TRKB (Homo sapiens, UniProt Q16620)
TRKB, sequence (Q16620 32-822, species assumed): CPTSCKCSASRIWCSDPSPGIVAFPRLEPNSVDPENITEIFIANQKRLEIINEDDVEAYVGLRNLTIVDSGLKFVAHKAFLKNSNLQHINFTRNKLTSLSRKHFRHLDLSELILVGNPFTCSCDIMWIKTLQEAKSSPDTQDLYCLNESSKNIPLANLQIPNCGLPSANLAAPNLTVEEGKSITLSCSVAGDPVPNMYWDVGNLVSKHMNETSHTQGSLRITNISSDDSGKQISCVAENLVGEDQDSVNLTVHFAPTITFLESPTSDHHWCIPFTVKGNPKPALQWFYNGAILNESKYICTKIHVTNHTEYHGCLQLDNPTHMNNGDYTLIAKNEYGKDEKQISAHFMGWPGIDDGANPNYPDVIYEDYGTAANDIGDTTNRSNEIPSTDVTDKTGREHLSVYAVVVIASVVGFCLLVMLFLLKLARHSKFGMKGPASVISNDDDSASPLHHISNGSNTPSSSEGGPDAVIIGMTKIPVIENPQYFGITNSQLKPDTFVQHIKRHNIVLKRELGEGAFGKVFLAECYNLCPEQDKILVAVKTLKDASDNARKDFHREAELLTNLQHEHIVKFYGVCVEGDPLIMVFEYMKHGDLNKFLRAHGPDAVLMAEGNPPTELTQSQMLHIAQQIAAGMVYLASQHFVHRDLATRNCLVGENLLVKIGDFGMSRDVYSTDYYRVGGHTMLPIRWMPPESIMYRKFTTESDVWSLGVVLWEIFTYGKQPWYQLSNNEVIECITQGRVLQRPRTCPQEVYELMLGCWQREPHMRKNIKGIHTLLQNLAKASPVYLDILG
Description: as §1

PDGFRA = PDGFRA (Homo sapiens, UniProt P16234)
Description: as §1

MAP3K3 = MAP3K3 (Homo sapiens, UniProt Q99759)
MAP3K3, sequence (Q99759 whole entry, species assumed): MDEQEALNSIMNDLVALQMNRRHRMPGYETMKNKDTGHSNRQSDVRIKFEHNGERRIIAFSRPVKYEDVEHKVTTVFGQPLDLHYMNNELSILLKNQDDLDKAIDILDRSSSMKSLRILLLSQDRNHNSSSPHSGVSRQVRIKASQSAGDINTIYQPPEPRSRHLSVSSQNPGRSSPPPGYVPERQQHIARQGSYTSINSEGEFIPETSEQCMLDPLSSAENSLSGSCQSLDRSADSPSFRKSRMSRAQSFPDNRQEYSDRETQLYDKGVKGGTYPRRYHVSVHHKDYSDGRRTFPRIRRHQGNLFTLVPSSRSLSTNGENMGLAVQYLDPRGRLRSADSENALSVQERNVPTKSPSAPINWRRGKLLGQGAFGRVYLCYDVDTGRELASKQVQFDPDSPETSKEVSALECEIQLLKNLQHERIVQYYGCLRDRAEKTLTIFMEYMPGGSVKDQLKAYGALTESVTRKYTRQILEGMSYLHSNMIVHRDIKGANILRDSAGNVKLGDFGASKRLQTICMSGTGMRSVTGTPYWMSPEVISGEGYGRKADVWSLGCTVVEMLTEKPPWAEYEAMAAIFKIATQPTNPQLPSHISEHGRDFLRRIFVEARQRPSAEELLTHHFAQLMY
Description: as §1

DAPK2 = DAPK2 (Homo sapiens, UniProt Q9UIK4)
DAPK2, sequence (Q9UIK4 whole entry, species assumed): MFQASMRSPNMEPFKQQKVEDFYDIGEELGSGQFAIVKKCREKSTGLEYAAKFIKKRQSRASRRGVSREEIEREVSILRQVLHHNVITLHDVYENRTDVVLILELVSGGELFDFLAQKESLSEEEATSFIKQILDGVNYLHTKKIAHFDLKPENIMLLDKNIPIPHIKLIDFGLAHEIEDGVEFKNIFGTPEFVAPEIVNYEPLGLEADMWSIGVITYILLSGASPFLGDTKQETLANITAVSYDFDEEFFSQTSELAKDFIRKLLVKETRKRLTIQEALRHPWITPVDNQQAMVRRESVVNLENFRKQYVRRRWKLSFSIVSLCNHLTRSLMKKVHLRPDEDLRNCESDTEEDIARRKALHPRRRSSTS
Description: as §1

TXK = TXK (Homo sapiens, UniProt P42681)
Description: as §1

BIKE = BIKE (Homo sapiens, UniProt Q9NSY1)
Description: as §1

JAK3 = JAK3 (Homo sapiens, UniProt P52333)
Description: as §1

CHEK2 = CHEK2 (Homo sapiens, UniProt O96017)
Description: as §1

PIP5K2B = PIP5K2B (Homo sapiens, UniProt P78356)
Description: as §1

YANK1 = YANK1 (Homo sapiens, UniProt Q8WU08)
Description: as §1

SYK = SYK (Homo sapiens, UniProt P43405)
Description: as §1

## Cc1ccc(C#Cc2cc(NC(N)=O)c(C(=O)N[C@H]3CCCNC3)s2)cc1 [Example 24, (S)—N-(piperidin-3-yl)-5-(p-tolylethynyl)-3-ureidothiophene-2-carboxamide]
RIOK3
  inhibition at 1 µM: 79%
EGFR(T790M)
  inhibition at 1 µM: 85%
PRKX
  inhibition at 1 µM: 73%
BLK
  inhibition at 1 µM: 93.2%
MARK2
  inhibition at 1 µM: 79%
SIK2
  inhibition at 1 µM: 73%
FAK
  inhibition at 1 µM: 75%
FYN
  inhibition at 1 µM: 91.5%
CSK
  inhibition at 1 µM: 92.1%
OSR1
  inhibition at 1 µM: 68%
LRRK2
  inhibition at 1 µM: 72%
SIK
  inhibition at 1 µM: 80%
MEK1
  inhibition at 1 µM: 96.3%
ANKK1
  inhibition at 1 µM: 93.3%
DCAMKL1
  inhibition at 1 µM: 80%
MAP4K4
  inhibition at 1 µM: 91.4%
AXL
  inhibition at 1 µM: 87%
AURKB
  inhibition at 1 µM: 66%
PAK4
  inhibition at 1 µM: 92.2%
LCK
  inhibition at 1 µM: 72%
FLT3
  inhibition at 1 µM: 99.6%
MAP4K5
  inhibition at 1 µM: 85%
PHKG2
  inhibition at 1 µM: 89%
TAK1
  inhibition at 1 µM: 91.5%
MERTK
  inhibition at 1 µM: 96.1%
MLK3
  inhibition at 1 µM: 90.8%
PHKG1
  inhibition at 1 µM: 98.4%
BUB1
  inhibition at 1 µM: 97.4%
HPK1
  inhibition at 1 µM: 78%
MAP4K3
  inhibition at 1 µM: 69%
ULK1
  inhibition at 1 µM: 99.8%
TRKB
  inhibition at 1 µM: 97.2%
PDGFRA
  inhibition at 1 µM: 95.8%
MAP3K3
  inhibition at 1 µM: 94.6%
DAPK2
  inhibition at 1 µM: 88%
TXK
  inhibition at 1 µM: 83%
BIKE
  inhibition at 1 µM: 77%
JAK3
  inhibition at 1 µM: 91.1%
CHEK2
  inhibition at 1 µM: 100%
PIP5K2B
  inhibition at 1 µM: 74%
YANK1
  inhibition at 1 µM: 95.5%
SYK
  inhibition at 1 µM: 91.5%

From patent publication US10442796B2, “2,3,5-substituted thiophene compound as protein kinase inhibitor” (KOREA INSTITUTE OF SCIENCE AND TECHNOLOGY, priority 2016, dated 2019)
